The term inhibition denotes the change of the read-out against control, counted positive when it falls.

SMILES strings stand for the structures.

Assay type in all cases: functional
What all share (set-up): concentration or dose not given beside the values

Test [1] has as its system Plasmodium falciparum. Nature of the test: MMV: P. falciparum NF54 functionally mature Stage V gametocytes were incubated for 24 hr in the presence of the test compounds. Gamete formation was then triggered by addition of 2uM xantheurenic acid and temperature decrease to ~20C. Male gamete exflagellation was recorded and analysed by automated microscopy after 20 min. All compounds were tested in 4 independent experiments and data presented here is the mean.

The next test deals with Plasmodium berghei. Briefly: MMV: P. berghei-infected blood was withdrawn from mice by cardiac pucture before being immediately added to ookinete culture medium containing test compounds. 26 hr later, GFP-positive ookinetes were identified and counted by automated microscopy. All compounds were tested in 4 independent experiments and data presented here is the mean.
Test [2] has as its system Plasmodium falciparum. Nature of the test: MMV: P. falciparum NF54 functionally mature Stage V gametocytes were incubated for 24 hr in the presence of the test compounds. Gamete formation was then triggered by addition of 2uM xantheurenic acid and temperature decrease to ~20C. Female gamete formation was recorded 24 hr later by automated microscopy detection of surface labelling of female gametes with a Cy3-conjugated antibody reactive to Pfs25. All compounds were tested in 4 independent experiments and data presented here is the mean. The note with it: NF54, 24 h.

As for `CN1CCN(c2ccc(Nc3c4ccccc4nc4ccccc34)cc2)CC1`, the inhibition was 56.4% in the test on Plasmodium falciparum [1], 3.384% with Plasmodium berghei and -3.1% in the test with Plasmodium falciparum [2].

As for `COc1ccc(-c2c(C)nn3c(N)c(C#N)cnc23)cc1OC`, the results for the inhibition in the test on Plasmodium falciparum [1], with Plasmodium berghei and in the test on Plasmodium falciparum [2] were -13.8%, 6.903% and -16.8%, respectively.

For `CSC1=NC(=Nc2c(C)cccc2C)C2(CCC(C(C)(C)C)CC2)N1c1ccc(Cl)cc1` (stereo not drawn), the inhibition with Plasmodium falciparum [1] is 15.7%; in the test with Plasmodium berghei it was 10.1%; in the test on Plasmodium falciparum [2], -11.8%.

For `C[n+]1c2ccccc2nc2ccc(NCCO)cc21`, the inhibition with Plasmodium falciparum [1] was 33.8%; in the test on Plasmodium berghei, 4.233%; with Plasmodium falciparum [2], -21.5%.

In the case of `OC(CNCC1CCCO1)Cn1c2ccc(Cl)cc2c2cc(Cl)ccc21` (stereo not drawn), the inhibition was -34.5% with Plasmodium falciparum [1], 3.62% with Plasmodium berghei and -43.4% in the test with Plasmodium falciparum [2].

Turning to `c1ccc(/C2=N/c3ccccc3/N=C(/c3ccccc3)c3ccccc32)cc1`, the inhibition was 41.7% in the test with Plasmodium falciparum [1], 4.56% in the test with Plasmodium berghei and 5.88% in the test on Plasmodium falciparum [2].

As for `COc1cc(C(=O)Nc2nc3c(cc4c5c(cccc53)CC4)s2)cc(OC)c1OC`, the inhibition was -1.82% in the test with Plasmodium falciparum [1], 5.808% in the test with Plasmodium berghei and -22.3% in the test on Plasmodium falciparum [2].

On to `COc1cccc(C2(C)Nc3ccccc3-c3nc4ccccc4n32)c1` (stereo not drawn), for which the figures for the inhibition in the test on Plasmodium falciparum [1], with Plasmodium berghei and with Plasmodium falciparum [2] were -12.6%, 6.874% and 7.61%, respectively.

Take `O=C1c2ccccc2-c2nnc(-c3ccc(Br)cc3)cc21`: the results for the inhibition in the test on Plasmodium falciparum [1], with Plasmodium berghei and in the test with Plasmodium falciparum [2] were 19.4%, 9.656% and -19.6%, respectively.

On to `CCOC(=O)C1=C(C)N=c2sc(=Cc3ccccc3O)c(=O)n2C1c1ccc(OC)c2ccccc12` (stereo not drawn), for which the inhibition in the test on Plasmodium falciparum [1] was -4.7%; in the test on Plasmodium berghei, 3.682%; with Plasmodium falciparum [2], -23.7%.

Consider `CCOC(=O)C1=C(C)N=c2sc(=Cc3cc(Cl)ccc3O)c(=O)n2C1c1ccc(OC)cc1` (stereo not drawn), for which the inhibition with Plasmodium falciparum [1] is -29.2%; in the test with Plasmodium berghei it was 5.932%; in the test on Plasmodium falciparum [2], -13%.

In the case of `Cc1nc2ccccc2c(O)c1CC=C(Cl)Cl`, the inhibition in the test with Plasmodium falciparum [1] is 6.46%; in the test with Plasmodium berghei, 2.285%; with Plasmodium falciparum [2], -3.75%.

`COc1ccc2nc(C)cc(Nc3ccc(Cl)cc3)c2c1`: the inhibition was -17.3% with Plasmodium falciparum [1], 4.092% in the test on Plasmodium berghei and -15.3% with Plasmodium falciparum [2].

In the case of `CCC(C)NCC(O)(c1ccc(Cl)cc1)c1ccc(Cl)cc1` (stereo not drawn), the figures for the inhibition in the test with Plasmodium falciparum [1], with Plasmodium berghei and in the test with Plasmodium falciparum [2] were 25.7%, 2.874% and -7.82%, respectively.

For the compound `COc1cc2cc(C(=O)Nc3ccccc3)c(N)nc2cc1OC`, the inhibition in the test on Plasmodium falciparum [1] was 22%; with Plasmodium berghei it was 8.567%; in the test with Plasmodium falciparum [2], -10%.

On to `Cn1c(=O)c2cc(C(=O)NCCCN3CCCCCC3)sc2c2ccccc21`, for which the results for the inhibition with Plasmodium falciparum [1], in the test with Plasmodium berghei and in the test on Plasmodium falciparum [2] were 20.7%, 5.415% and -16.3%, respectively.

Turning to `COc1ccc(C(=O)NC(c2ccc(Cl)cc2Cl)c2cc(Cl)c3cccnc3c2O)cc1` (stereo not drawn), the inhibition in the test on Plasmodium falciparum [1] was -11.1%; in the test on Plasmodium berghei it was 1.805%; with Plasmodium falciparum [2], -10.1%.

For `O=C(NC(c1ccccc1)c1ccc2cccnc2c1O)c1ccccc1` (stereo not drawn), the inhibition with Plasmodium falciparum [1] was 5.16%; in the test on Plasmodium berghei, 6.162%; with Plasmodium falciparum [2], -22.7%.

For `CC(=O)Nc1nnc(SCc2c(C)cc(C(C)(C)C)cc2C)s1`, the inhibition worked out at 17.4% with Plasmodium falciparum [1], 4.957% in the test with Plasmodium berghei and 5.39% in the test on Plasmodium falciparum [2].

Turning to `CCN(CC)CCNc1ccnc2cc3ccccc3cc12.O=P(O)(O)O`, the inhibition is 9.43% in the test on Plasmodium falciparum [1], 2.138% in the test with Plasmodium berghei and -24% in the test on Plasmodium falciparum [2].

`Cc1cc(Nc2cccc(F)c2)nc(NCc2ccccc2)n1`: the inhibition in the test on Plasmodium falciparum [1] is 20.4%; in the test with Plasmodium berghei, 4.533%; in the test on Plasmodium falciparum [2], -45.8%.

Take `O=c1cc(NC2CCN(CCCc3ccccc3)CC2)c2cc(Cl)ccc2o1`: the inhibition in the test on Plasmodium falciparum [1] is -9.89%; in the test on Plasmodium berghei it was 7.737%; with Plasmodium falciparum [2], -4.85%.

For `CCN(CC)CCNc1ncnc2c1[nH]c1ccc(Br)cc12`, the inhibition was -106% with Plasmodium falciparum [1], 9.06% in the test with Plasmodium berghei and 13.8% with Plasmodium falciparum [2].

With `O=C(Nc1ccc(Cl)cc1)N1CCN(c2ccc3nncn3n2)CC1`, the inhibition with Plasmodium falciparum [1] was 25.9%; in the test on Plasmodium berghei, 8.279%; with Plasmodium falciparum [2], -16.6%.

Consider `CC(C)CCNCC(O)Cn1c2ccccc2c2ccccc21.Cl` (stereo not drawn), for which the inhibition in the test on Plasmodium falciparum [1] was -10.1%; in the test on Plasmodium berghei it was 4.97%; in the test with Plasmodium falciparum [2] it was -12.9%.

For the compound `CCOc1cc2c(cc1OCC)C(c1cc(Cl)ccc1O)NCC2` (stereo not drawn), the inhibition in the test with Plasmodium falciparum [1] was 4.54%; in the test with Plasmodium berghei, 9.631%; in the test with Plasmodium falciparum [2], -14.7%.

With `CCCCNCC(O)(c1ccc(Cl)cc1)c1ccc(Cl)cc1`, the inhibition in the test on Plasmodium falciparum [1] is 5.76%; with Plasmodium berghei it was 10.56%; in the test on Plasmodium falciparum [2], -11%.

With `COc1cccc(-c2nn(C)c3sc(C(=O)NCCN4CCN(c5ccccc5F)CC4)cc23)c1`, the inhibition in the test with Plasmodium falciparum [1] is 14.1%; in the test with Plasmodium berghei, 2.067%; in the test on Plasmodium falciparum [2], -2.79%.

For the compound `O=C(Nc1ccc(N2CCCCC2)c(Cl)c1)c1ccc(Br)o1`, the inhibition in the test with Plasmodium falciparum [1] is 41.2%; in the test on Plasmodium berghei it was 4.656%; in the test on Plasmodium falciparum [2], -35.3%.

Turning to `Cc1ccc(Cn2c(N3CCC(C(=O)NCc4cccs4)CC3)nc3ccccc32)cc1`, the inhibition is 12.1% in the test on Plasmodium falciparum [1], 6.449% in the test on Plasmodium berghei and -22.4% in the test with Plasmodium falciparum [2].

Regarding `COc1ccc(C(O)(CCC(C)C)C(CN2CCOCC2)c2ccc(Cl)cc2)cc1.Cl` (stereo not drawn), the inhibition is -0.282% in the test on Plasmodium falciparum [1], 5.473% in the test with Plasmodium berghei and 6.32% in the test on Plasmodium falciparum [2].

As for `CC(C)OCc1cc(CN2CCN(c3cccc(Cl)c3)CC2)c(O)c2ncccc12`, the inhibition in the test with Plasmodium falciparum [1] was 10.1%; in the test with Plasmodium berghei, 5.6%; in the test on Plasmodium falciparum [2] it was -27.4%.

Turning to `O=C(Nc1nc(-c2ccccn2)cs1)c1ccccc1Br`, the results for the inhibition with Plasmodium falciparum [1], with Plasmodium berghei and in the test on Plasmodium falciparum [2] were -29.6%, 2.456% and -22.2%, respectively.

Take `Oc1ccc(C(=C(Cl)Cl)c2ccc(O)cc2)cc1`: the values for the inhibition with Plasmodium falciparum [1], in the test with Plasmodium berghei and in the test on Plasmodium falciparum [2] were 5.51%, 3.378% and -25.3%, respectively.

With `CCOc1ccc2c(c1)CN(Cc1ccc(Cl)cc1)CO2`, the inhibition in the test on Plasmodium falciparum [1] is 18.9%; with Plasmodium berghei, 5.14%; with Plasmodium falciparum [2], -18.1%.

Consider `CCOc1ccccc1CNC(=O)C1c2ccccc2C(=O)N(CC(C)C)C1c1cccs1` (stereo not drawn), for which the inhibition with Plasmodium falciparum [1] is 15.7%; with Plasmodium berghei it was 3.43%; in the test on Plasmodium falciparum [2] it was -3.09%.

Regarding `CC(C)(C)c1ccc2c(c1)CN(Cc1ccc(Cl)cc1)CO2`, the values for the inhibition in the test with Plasmodium falciparum [1], in the test on Plasmodium berghei and in the test with Plasmodium falciparum [2] were -12.2%, 3.358% and 6.43%, respectively.

Consider `O=c1nc(C=Cc2ccc(Cl)cc2)oc2ccccc12`, for which the inhibition with Plasmodium falciparum [1] was 41%; in the test with Plasmodium berghei, 7%; with Plasmodium falciparum [2], -1.1%.

For `Cc1cc(=O)oc2c1ccc1oc(C(=O)c3ccccc3)c(C)c12`, the results for the inhibition in the test on Plasmodium falciparum [1], in the test on Plasmodium berghei and in the test with Plasmodium falciparum [2] were -11.5%, 6.058% and -19.6%, respectively.

For `Cl.OC(CNCc1ccccc1)Cn1c2ccccc2c2ccccc21` (stereo not drawn), the inhibition was -10.2% in the test with Plasmodium falciparum [1], 3.967% in the test with Plasmodium berghei and 11.4% with Plasmodium falciparum [2].

As for `Cc1ccc(F)cc1NC(=O)c1cc(Cl)ccc1Nc1ccccc1`, the values for the inhibition in the test with Plasmodium falciparum [1], in the test with Plasmodium berghei and with Plasmodium falciparum [2] were 43.2%, 6.256% and -12.6%, respectively.

In the case of `Oc1c2c(nc3cc(-c4ccccc4)nn13)CCCC2`, the inhibition with Plasmodium falciparum [1] was 1.37%; in the test on Plasmodium berghei, 4.402%; with Plasmodium falciparum [2], -27.5%.

On to `COc1ccc(C)c2sc(N(Cc3cccnc3)C(=O)c3ccc(C#N)cc3)nc12`, for which the figures for the inhibition in the test on Plasmodium falciparum [1], with Plasmodium berghei and in the test on Plasmodium falciparum [2] were -18.7%, 2.145% and -37.8%, respectively.

Regarding `CCOc1ccc(CCNC(=O)c2cccs2)cc1OCC`, the inhibition stood at 22% in the test with Plasmodium falciparum [1], 8.759% with Plasmodium berghei and 2.16% in the test with Plasmodium falciparum [2].

Regarding `CCCN(CCC)CCCNC(=O)c1cc2c(-c3ccc(OC)c(OC)c3)nn(C)c2s1`, the values for the inhibition in the test on Plasmodium falciparum [1], in the test on Plasmodium berghei and with Plasmodium falciparum [2] were -20.2%, 5.504% and -7.86%, respectively.

In the case of `CCCCCn1c(=N)n(CC(O)COc2cccc(C)c2)c2ccccc21.Cl` (stereo not drawn), the values for the inhibition in the test with Plasmodium falciparum [1], with Plasmodium berghei and with Plasmodium falciparum [2] were -6.7%, 6.769% and -30.6%, respectively.

`O=c1c2c([nH]c3ccccc13)CCCC2`: the inhibition in the test on Plasmodium falciparum [1] is 51%; with Plasmodium berghei, 6.827%; in the test on Plasmodium falciparum [2], -24.5%.

Take `CN1c2ccccc2N(C)C1c1ccc2c(c1)OCO2`: the inhibition in the test with Plasmodium falciparum [1] was 8.56%; in the test with Plasmodium berghei, 3.083%; with Plasmodium falciparum [2] it was -33.5%.

Turning to `CN(C)c1ccc(N=Cc2ccc(N3CCOCC3)cc2)cc1`, the inhibition was 34.2% in the test with Plasmodium falciparum [1], 4.978% with Plasmodium berghei and -21.3% in the test on Plasmodium falciparum [2].

Regarding `c1ccc(Cn2c(N=Nc3c(Nc4ccccc4)ccc4ccccc34)nc3ccccc32)cc1`, the inhibition was -0.509% in the test with Plasmodium falciparum [1], 7.124% in the test with Plasmodium berghei and 7.17% in the test on Plasmodium falciparum [2].

As for `CC(C)(C)c1ccc(C2CC3=Nc4ccccc4N(C(=O)c4ccccc4Cl)C(c4ccc(F)cc4)C3=C(O)C2)cc1` (stereo not drawn), the inhibition was -39.9% in the test with Plasmodium falciparum [1], 4.566% with Plasmodium berghei and -44.4% in the test with Plasmodium falciparum [2].

The record behind these values is ChEMBL document CHEMBL3301451, “MMV Malaria Box gametocyte functional viability assay screening”.
